The source of these data is patent US7087634B2, “Cyclic AMP-specific phosphodiesterase inhibitors” (ICOS Corporation, priority 1999, dated 2006).

pEC50, pIC50: −log10 of the molar value. Read-outs that look alike come from different tables or passages of the source.

In one data set the test system is recombinant human PDE4. To be noted: background, reported value; read-out: reported IC50 with respect to recombinant human PDE4; cited from earlier work.
A further data set deals with serum TNFα. Briefly: Combined mouse endotoxin-stimulated TNFα release assay (serum TNFα). The data set is classed as in vivo. To be noted: female Balb/c mice, i.p., LPS model. As to the method:
(§1) The purpose of this study was to determine the efficacy of PDE4 inhibitors in vivo in an LPS mouse model together with a determination with respect to central nervous system (CNS) side-effects manifested by a decrease in spontaneous mobility.
(§2) The test animals were female Balb/c mice, having an average weight of about 20 g. The PDE4 inhibitors, formulated in 30% Cremophor® EL, were administered via intraperitoneal (i.p.) injections at doses of 0.1, 1.0, 10.0, and 100 mg/kg. Individual dose volumes (about 150 μL) were adjusted based on the body weights measured. One hour later, 5 mg/kg LPS in a final volume of 200 μL was injected via the tail vein to each animal. Ninety minutes following the LPS treatment, the animals were bled and serum samples were collected before being stored at −70° C. until assayed.
For efficacy determination, the serum samples were diluted two-fold and TNFα levels were determined using the CYTOSCREEN® Immunoassay Kit (Biosource International). The data were averaged between triplicate sample subjects for each of the tested compounds.

A short description of data set [1]: Combined mouse locomotor activity assay (sedative / CNS side-effect scoring). Type of data set: in vivo. Set-up: key: Vehicle control animals were rated a single “+”; animals that were effectively immobilized and stretched out on the bottom of the cage with little detectable movement were rated as “++++.”. To be noted: female Balb/c mice, i.p., 10 mg/kg. As to the method: as §1, §2
For side-effect profiling, a subjective visual scoring system was utilized at 5 min and 20 min after administration of PDE4 inhibitors. […] In this instance, the subjects could be monitored continuously over pre-set intervals.
Movement of the X-Y plane, or rearing up on the hind legs, was quantified by counting the number of “light-beam” crosses per unit of time. […] The quantitative scoring correlated well with the subjective measurements described above.

Another data set has as its target T1, human recombinant PDE4 (Homo sapiens, UniProt Q07343).
T1 construct: made in house; host or cells: Saccharomyces cerevisiae BJ2-54
Description: Inhibition of human recombinant PDE4 (charcoal separation PDE assay). Type of data set: biochemical. To be noted: PDE4 IC50 (μM). Here is the method: The compounds of structural formula (I) were tested for an ability to inhibit PDE4. […] The IC50 value for compounds of structural formula (I) were determined using human recombinant PDE4.
Phosphodiesterase activity of the preparations was determined as follows. […] In this assay, PDE activity converts [32P]cAMP or [32P]cGMP to the corresponding [32P]5′-AMP or [32P]5′-GMP in proportion to the amount of PDE activity present. The [32P]5′-AMP or [32P]5′-GMP then was quantitatively converted to free [32P]phosphate and unlabeled adenosine or guanosine by the action of snake venom 5′-nucleotidase. […] The assay was performed at 30° C. in a 100 μL reaction mixture containing (final concentrations) 40 mM Tris HCl (pH 8.0), 1 μM ZnSO4, 5 mM MgCl2, and 0.1 mg/mL bovine serum albumin (BSA). Alternatively, in assays assessing PDE1-specific activity, incubation mixtures further incorporated the use of 0.1 mM CaCl2 and 10 μg/mL calmodulin. PDE enzyme was present in quantities that yield <30% total hydrolysis of substrate (linear assay conditions). The assay was initiated by addition of substrate (1 mM [32P]cAMP or cGMP), and the mixture was incubated for 12 minutes. Seventy-five (75) μg of Crotalus atrox venom then was added, and the incubation was continued for 3 minutes (15 minutes total). The reaction was stopped by addition of 200 μL of activated charcoal (25 mg/mL suspension in 0.1 M NaH2PO4, pH 4). After centrifugation (750×g for 3 minutes) to sediment the charcoal, a sample of the supernatant was taken for radioactivity determination in a scintillation counter and the PDE activity was calculated.

Data set [2] has as its system TNFα release from human peripheral blood lymphocytes. Briefly: Lipopolysaccharide-stimulated TNFα release from human peripheral blood lymphocytes. The data set is classed as cell-based. As to the method:
The compounds of structural formulae (I) and (II) were tested for an ability to reduce TNFα secretions in human peripheral blood lymphocytes. The ability of a compound to reduce TNFα secretion is related to the EC50 value for the compound (i.e., the effective concentration of the compound capable of inhibiting 50% of the total TNFα).
To assess the ability of a compound to reduce TNFα secretion in human peripheral blood lymphocytes (PBL), the following tests were performed.
Heparinized blood (approximately 30 mL) drawn from human volunteers was mixed 1:1 with Dulbecco's modified phosphate-buffered saline. This mixture was mixed 1:1 with HISTOPAQUE® and centrifuged at 1,500 rpm at room temperature without braking in the swinging bucket of a Beckman model TJ6 centrifuge. Erythrocytes were centrifuged to the bottom of the tubes, and serum remained at the surface of the tubes. A layer containing lymphocytes sedimented between the serum and HISTOPAQUE® layers, and was removed by aspiration to a fresh tube. The cells were quantified and adjusted to […] and a 100 μL aliquot is placed into the wells of a 96 well plate. Test compounds and RPMI media (Gibco/BRL Life Sciences) are added to each of the wells 15 minutes prior to addition of bacterial LPS ([…]). The mixture was allowed to incubate for 20 hours at 37° C. in a humidified chamber. The cells then were separated by centrifuging at 800 rpm for 5 minutes at room temperature. An aliquot of 180 μL of supernatant was transferred to a new plate for determination of TNFα concentration. TNFα protein in the cell supernatant fluids was measured using a commercially available enzyme-linked immunosorbent assay (ELISA) (CYTOSCREEN® Immunoassay Kit from Biosource International).
The cell-based assay provided the following results for various compounds of the present invention. The EC50. values (i.e., effective concentration of the compound capable of inhibiting 50% of the total TNFα) illustrate the ability of the present compounds to inhibit LPS-stimulated TNFα release from human PBL.
The cell-based assay provided the following results for various pyrazole compounds of the present invention. The EC50 values (i.e., effective concentrations of the compound capable of inhibiting 50% of the total TNFα) illustrate the ability of the present compounds to inhibit LPS-stimulated TNFα release from human peripheral blood lymphocytes.

T1 sequence (Q07343 whole entry): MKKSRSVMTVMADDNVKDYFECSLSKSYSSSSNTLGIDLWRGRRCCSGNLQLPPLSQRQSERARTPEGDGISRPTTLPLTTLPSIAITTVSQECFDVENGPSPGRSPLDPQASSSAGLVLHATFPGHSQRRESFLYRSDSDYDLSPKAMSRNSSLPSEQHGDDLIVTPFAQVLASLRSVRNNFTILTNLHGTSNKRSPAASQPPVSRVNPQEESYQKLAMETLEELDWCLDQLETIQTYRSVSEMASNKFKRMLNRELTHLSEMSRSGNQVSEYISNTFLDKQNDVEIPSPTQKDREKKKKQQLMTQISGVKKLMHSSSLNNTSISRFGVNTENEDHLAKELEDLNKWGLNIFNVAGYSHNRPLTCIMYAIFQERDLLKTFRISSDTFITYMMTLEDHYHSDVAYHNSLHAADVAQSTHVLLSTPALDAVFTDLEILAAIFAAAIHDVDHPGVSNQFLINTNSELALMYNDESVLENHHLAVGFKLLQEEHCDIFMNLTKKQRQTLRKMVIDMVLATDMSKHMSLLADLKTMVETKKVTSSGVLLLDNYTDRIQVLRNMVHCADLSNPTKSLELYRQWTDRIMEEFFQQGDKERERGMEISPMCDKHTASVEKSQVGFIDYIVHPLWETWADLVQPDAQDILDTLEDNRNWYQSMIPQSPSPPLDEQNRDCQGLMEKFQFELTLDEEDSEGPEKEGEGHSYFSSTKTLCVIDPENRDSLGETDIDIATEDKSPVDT

As a reminder, the pIC50 is the IC50 on a negative log10 scale, so that one unit is a factor of ten. `COC(=O)N1CC(c2ccc(OC)c(OC3CCCC3)c2)C(C)(C(C)=O)C1` (stereo not shown): in the data set with recombinant human PDE4, the negative-log IC50 (pIC50) is approximately 8.70.

Take `COC(=O)N1C[C@@H](c2ccc(OC)c(OC3CCCC3)c2)[C@](C)(C(C)=O)C1` (relative stereo) [Comparative Example, trans-3-(3-cyclopentoxy-4-methoxyphenyl)-1-methoxycarbonyl-4-methyi-4-(methylcarbonyi)pyrrolidine]: the “% TNFQ Inhibition” value is 43% with serum TNFα (1 mg/kg), 100% with serum TNFα (10 mg/kg) and 100% in the data set on serum TNFα (100 mg/kg). In data set [1], the “Sedative Effect” value is listed as “+”.

The term IC50 denotes the midpoint of a concentration-inhibition curve. `CCOC(=O)c1c(C)nn(-c2ccc(N=Cc3ccc(OC)cc3)cc2)c1C` [Example 39]: the half-inhibitory concentration (IC50) on human recombinant PDE4 (structure table) and at human recombinant PDE4 (table with PBL/TNFα) was 0.69 µM throughout. Also, the pEC50 in data set [2] (Lymphocyte, LPS-stimulated TNFα release from human PBL, read-out: PBL/TNFα EC50) was 5.89.

As for `CCOC(=O)c1c(C)nn(-c2ccc(NCc3ccccc3O)cc2)c1C` [Example 40], the IC50 on human recombinant PDE4 (structure table) and at human recombinant PDE4 (table with PBL/TNFα) was 0.92 µM in each case. Besides, the EC50 in data set [2] (Homo sapiens, Lymphocyte, read-out: PBL/TNFα EC50 (μM)) stood at 6.2 µM.

Consider `COc1ccc(C2CNC(=O)C2)cc1OC1CCCC1` (stereo not shown) [Rolipram, reference compound], for which, in data set [2] (preliminary experiments), the “LPS-induced TNFα secretion from human lymphocytes” value is reported as “inhibit LPS-induced TNFα secretion from human lymphocytes in a dose-dependent fashion”. For the same compound, the pIC50 with recombinant human PDE4 was approximately 6.70.
